Here are results for one molecule from US20030033638A1, “Production of transgenic plants of the tagetes species” (priority 1999, published 2003).

Molecules are shown by their SMILES. Bounds are passed on as bounds.

The test system of the test is leaves of Tagetes patula plants of genotypes TAG 80 and TAG 81. Briefly: Determination of phosphinothricin (PPT) toxicity on leaf explants. It is filed as cell-based. The settings on record: leaf disks 10-60 mm^2 on MS medium with 2% sucrose, 3 mg/l BAP, 1 mg/l IAA; 2 weeks; both genotypes TAG 80 and TAG 81. On the procedure:
Leaves of Tagetes patula plants of genotypes TAG 80 and TAG 81 (Genbank, IPK Gatersleben) which were established in vitro were cut transversely to the central vein into disks 10-60 mm^2 in size and placed on MS medium supplemented with 2% sucrose, 3 mg/l benzylaminopurine (BAP), 1 mg/l indoleacetic acid (IAA) and different PPT concentrations. Incubation was for 2 weeks in a 16/8 hour light/dark photoperiod at approx. 50 μE/m^2s and at from 21 to 24° C. Then, the number of damaged explants was recorded with reference to the total number of tested explants (FIG. 2). In both Tagetes patula genotypes tested, concentrations starting at 1 mg/l PPT led to the complete destruction of all explants, which is why this concentration was used for the selection after cocultivation.

For `CP(=O)(O)CC[C@H](N)C(=O)O` [PPT, phosphinothricin], the “PPT concentration leading to the complete destruction of all explants” value is at least 1 mg/L.
